The values below come from paper PMC11311842, “Radiosynthesis and Preclinical Evaluation of ^18F-Labeled Estradiol Derivatives with Different Lipophilicity for PET Imaging of Breast Cancer” (Cancers, 2024).

A short description of data set [1]: Determination of logD7.4 (n-octanol/PBS). The format is physicochemical. As to conditions: n-octanol/PBS pH 7.4; mean ± SD, three independent experiments. The protocol: For the determination of the octanol–water coefficient, an aliquot of the radiotracer was added to PBS (500 µL, pH 7.4) and n-octanol (500 µL) in an Eppendorf tube. The mixture was vortexed and subsequently centrifuged, each for 1 min. Three samples (each 100 µL) were taken from both the PBS and the n-octanol layer and measured using a γ-counter (Wallac Wizard, PerkinElmer, Waltham, MA, USA). The logD7.4 was expressed as log(cpmoctanol/cpmPBS) and reported as mean ± SD. The determination of logD7.4 was performed in three independent experiments, each performed in triplicate.

In data set [2] the test system is ER+ MCF-7 cells. Nature of the data set: Cellular uptake assay in ER+ cells. Format: cell-based, human. The protocol: One day prior to the experiment, MCF-7 and MDA-MB-231 cells were seeded in 24-well plates (350,000 cells/well). The cells were washed once with cell medium. The cells were incubated with the respective radiotracer in cell medium (510 µL) for 10, 20, 30, 60, 90, 120 min at 37 °C in the absence and presence of estradiol (E2, final concentration of 72 µM). After incubation, the plates were set on ice and washed with ice-cold PBS twice, following cell lysis and detachment with NaOH (0.1 M, 750 µL, 37 °C). The cells were transferred to counting tubes, and the radioactivity was measured using a γ-counter (Wallac Wizard, PerkinElmer, Waltham, MA, USA). The protein concentration of each well was determined in duplicate using Bradford reagent (Bio-Rad Laboratories GmbH, Feldkirchen, Germany). The cellular uptake assay was performed in 2–4 independent experiments, each performed in quadruplicate for each time point.

In data set [3] the test system is MCF-7 (ER+) tumor-bearing nude mice. Nature of the data set: Small animal PET imaging. Format: in vivo. On the procedure: Female NMRI nude mice (Crl:NMRI-Foxn1^nu) were purchased from Charles River (Charles River Laboratories Inc., Wilmington, MA, USA) at the age of four weeks and kept in groups of four to five animals in individually ventilated cages in a twelve hours dark/light cycle, with unlimited access to water and standard chow. At the age of nine to ten weeks, one 17β-estradiol pellet per animal (0.72 mg per pellet, 3 mm diameter) with a 60-day release time (Innovative Research of America, Sarasota, FL, USA) was subcutaneously implanted on the back under isoflurane anesthesia. After three days, approximately 2–3 × 10^6 MCF-7, T47D or MDA-MB-231 tumor cells (in 50 µL PBS) were mixed with Matrigel (50 µL, BD Biosciences, Becton, Dickinson and Company, Franklin Lakes, NJ, USA) and injected subcutaneously to the back of the mice. Tumor diameters and weight of the animals were recorded five times a week. Biodistribution or imaging studies were performed three–four weeks after the inoculation of the cells. […] Dynamic images were acquired for 60 min, starting with the injection of the radiotracer. […] Regions of interest (ROIs) were drawn over the tumor, and the mean radioactivity concentration within these regions was obtained from the mean values and calculated as a percentage of the total injected dose per gram tissue (%ID/g).

Data set [4] relates to ER+ MCF-7 tumor slices. The data set is described as follows: In vitro autoradiography of MCF-7 tumor slices. The format is binding, human. Particulars: 60 min, room temperature, with or without E2 (72 µM). The protocol: MCF-7, MDA-MB231 and T47D tumors grown in nude mice were collected and frozen in a hexane/dry ice bath (−70 °C). Tumor slices (14 µm) were prepared on a cryostat microtome HM 500 O (Microm, Walldorf, Germany), thaw-mounted on HistoBond® adhesive glass slides (Marienfeld, Lauda-Königshofen, Germany) and stored at −80 °C. For in vitro autoradiography studies, the tumor tissue sections were thawed and pre-incubated in incubation buffer (50 mM Tris HCl, 5 mM MgCl2, 0.2% bovine serum albumin (BSA), pH 7.4) at room temperature for 15 min. Then, the sections were transferred to incubation buffer containing ^18F-TA-Glyco-EE (3–5 MBq) in a total volume of 70 mL. For the determination of non-specific binding, separate sections were incubated with ^18F-TA-Glyco-EE in the presence of E2 (72 µM). After an incubation time of 60 min, the sections were washed three times with incubation buffer, followed by a short dip in ice-cold distilled water. The slices were carefully dried in a stream of warm air and finally placed on a phosphor imager screen (Fuji Imaging Plate BAS-IP SR 2025 E) overnight prior to readout (30 µm resolution) using the HD-CR-35 Bio scanner (Elysia-Raytest, Straubenhardt, Germany). […] Regions of interest were analyzed from 3–4 tumor slices from the MCF-7, MDA-MB231 and T47D tumors, and mean values of the intensity per area were calculated.

Molecules are shown by their SMILES. “Also recorded” adds a separate entry of the source.

In turn, `CC(=O)OC1C(C[18F])OC(n2cc(C3(O)CCC4C5CCc6cc(O)ccc6C5CCC43C)nn2)C(OC(C)=O)C1OC(C)=O` (stereo not drawn) [^18F-TA-Glyco-EE] registered a logD7.4 in data set [1] of 2.3 ± 0.1. Moreover, the “Cellular uptake relative to ^18F-PEG-EE and ^18F-Glyco-EE” value in data set [2] (ER+ MCF-7 cells) was 10 fold. Further, the “Cellular uptake in MCF-7 cells” value in data set [2] (after 60 min, 37 °C, absence of E2) was 270 %/mg. Also, in data set [3] (60 min p.i.), the “Uptake in MCF-7 tumors (PET)” value is reported as “around 1 %ID/g”. Besides, the “Tumor uptake, non-treated versus fulvestrant-treated animals (PET)” value in data set [3] (fulvestrant 0.5 mg s.c., second scan 48 h later, n = 4) is reported as “significantly reduced tumor uptake on PET scans in one of the four animals; also recorded: did not show a significant difference”. Besides, the “Binding to MCF-7 tumor sections (autoradiography)” value in data set [4] is listed as “high specific binding”.
